Data: US12685735B2 (Foghorn Therapeutics Inc., priority 2020, dated 2026)

Key:
BRM = BRM (Homo sapiens, UniProt P51531); test: ATPase catalytic activity assay of BRM (ADP-Glo); assay type: biochemical; details: for IC50: read-out: BRM IC50 (μM)*
How it was run: (§1)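 ATPase activity of BRG-1 or BRM was read by ADP-Glo. Residual ATP was depleted (40 min, room temperature), then ADP was converted to ATP (60 min, room temperature) and measured as luciferase luminescence.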

BRG-1 = BRG-1 (Homo sapiens, UniProt P51532); test: ATPase catalytic activity assay of BRG-1 (ADP-Glo); assay type: biochemical; details: ATPase catalytic activity, ADP-Glo; for IC50: read-out: BRG1 IC50 (μM)*; for Emax: read-out: BRG1 Max % Inhibition
How it was run: as §1

Chain of BRM (P51531 whole entry): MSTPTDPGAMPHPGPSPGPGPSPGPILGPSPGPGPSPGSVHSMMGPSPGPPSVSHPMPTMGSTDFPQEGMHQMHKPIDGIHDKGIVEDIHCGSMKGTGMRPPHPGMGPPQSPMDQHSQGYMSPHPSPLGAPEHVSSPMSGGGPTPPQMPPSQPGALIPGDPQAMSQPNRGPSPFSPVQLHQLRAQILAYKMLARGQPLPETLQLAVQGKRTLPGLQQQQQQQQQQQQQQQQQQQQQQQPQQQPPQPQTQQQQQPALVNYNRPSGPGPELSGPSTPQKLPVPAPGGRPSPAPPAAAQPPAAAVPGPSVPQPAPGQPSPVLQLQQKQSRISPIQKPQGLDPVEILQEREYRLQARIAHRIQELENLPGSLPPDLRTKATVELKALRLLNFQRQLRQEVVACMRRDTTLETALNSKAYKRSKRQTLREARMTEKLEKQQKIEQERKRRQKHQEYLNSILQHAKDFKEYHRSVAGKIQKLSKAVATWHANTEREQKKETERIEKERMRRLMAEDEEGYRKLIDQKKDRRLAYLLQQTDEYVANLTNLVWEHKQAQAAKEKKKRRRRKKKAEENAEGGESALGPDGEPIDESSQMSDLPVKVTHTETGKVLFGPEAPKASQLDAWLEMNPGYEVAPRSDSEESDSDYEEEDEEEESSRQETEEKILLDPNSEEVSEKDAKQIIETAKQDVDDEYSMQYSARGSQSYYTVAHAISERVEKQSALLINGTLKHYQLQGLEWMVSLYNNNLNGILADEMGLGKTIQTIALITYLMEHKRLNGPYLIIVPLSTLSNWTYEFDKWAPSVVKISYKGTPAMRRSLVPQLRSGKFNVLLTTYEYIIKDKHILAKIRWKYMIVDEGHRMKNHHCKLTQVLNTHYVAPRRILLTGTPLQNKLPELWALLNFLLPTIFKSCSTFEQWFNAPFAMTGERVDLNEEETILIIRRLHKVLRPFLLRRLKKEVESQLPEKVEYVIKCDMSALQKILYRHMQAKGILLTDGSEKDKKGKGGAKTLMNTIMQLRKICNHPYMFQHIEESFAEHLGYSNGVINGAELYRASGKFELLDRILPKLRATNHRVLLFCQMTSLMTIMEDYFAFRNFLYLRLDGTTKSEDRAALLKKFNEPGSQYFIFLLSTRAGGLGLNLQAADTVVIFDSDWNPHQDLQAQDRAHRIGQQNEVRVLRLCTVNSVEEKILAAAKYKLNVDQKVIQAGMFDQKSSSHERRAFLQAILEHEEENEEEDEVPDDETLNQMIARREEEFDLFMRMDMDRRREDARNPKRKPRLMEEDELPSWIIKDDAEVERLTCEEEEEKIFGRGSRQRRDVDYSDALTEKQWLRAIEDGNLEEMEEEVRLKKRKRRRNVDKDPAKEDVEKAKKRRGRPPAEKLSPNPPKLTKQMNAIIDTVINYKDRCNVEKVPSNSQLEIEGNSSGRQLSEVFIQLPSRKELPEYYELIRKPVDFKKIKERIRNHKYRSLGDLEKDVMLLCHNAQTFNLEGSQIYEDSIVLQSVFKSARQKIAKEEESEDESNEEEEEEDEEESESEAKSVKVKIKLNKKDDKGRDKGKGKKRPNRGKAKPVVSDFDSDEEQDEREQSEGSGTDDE
Chain of BRG-1 (P51532 whole entry): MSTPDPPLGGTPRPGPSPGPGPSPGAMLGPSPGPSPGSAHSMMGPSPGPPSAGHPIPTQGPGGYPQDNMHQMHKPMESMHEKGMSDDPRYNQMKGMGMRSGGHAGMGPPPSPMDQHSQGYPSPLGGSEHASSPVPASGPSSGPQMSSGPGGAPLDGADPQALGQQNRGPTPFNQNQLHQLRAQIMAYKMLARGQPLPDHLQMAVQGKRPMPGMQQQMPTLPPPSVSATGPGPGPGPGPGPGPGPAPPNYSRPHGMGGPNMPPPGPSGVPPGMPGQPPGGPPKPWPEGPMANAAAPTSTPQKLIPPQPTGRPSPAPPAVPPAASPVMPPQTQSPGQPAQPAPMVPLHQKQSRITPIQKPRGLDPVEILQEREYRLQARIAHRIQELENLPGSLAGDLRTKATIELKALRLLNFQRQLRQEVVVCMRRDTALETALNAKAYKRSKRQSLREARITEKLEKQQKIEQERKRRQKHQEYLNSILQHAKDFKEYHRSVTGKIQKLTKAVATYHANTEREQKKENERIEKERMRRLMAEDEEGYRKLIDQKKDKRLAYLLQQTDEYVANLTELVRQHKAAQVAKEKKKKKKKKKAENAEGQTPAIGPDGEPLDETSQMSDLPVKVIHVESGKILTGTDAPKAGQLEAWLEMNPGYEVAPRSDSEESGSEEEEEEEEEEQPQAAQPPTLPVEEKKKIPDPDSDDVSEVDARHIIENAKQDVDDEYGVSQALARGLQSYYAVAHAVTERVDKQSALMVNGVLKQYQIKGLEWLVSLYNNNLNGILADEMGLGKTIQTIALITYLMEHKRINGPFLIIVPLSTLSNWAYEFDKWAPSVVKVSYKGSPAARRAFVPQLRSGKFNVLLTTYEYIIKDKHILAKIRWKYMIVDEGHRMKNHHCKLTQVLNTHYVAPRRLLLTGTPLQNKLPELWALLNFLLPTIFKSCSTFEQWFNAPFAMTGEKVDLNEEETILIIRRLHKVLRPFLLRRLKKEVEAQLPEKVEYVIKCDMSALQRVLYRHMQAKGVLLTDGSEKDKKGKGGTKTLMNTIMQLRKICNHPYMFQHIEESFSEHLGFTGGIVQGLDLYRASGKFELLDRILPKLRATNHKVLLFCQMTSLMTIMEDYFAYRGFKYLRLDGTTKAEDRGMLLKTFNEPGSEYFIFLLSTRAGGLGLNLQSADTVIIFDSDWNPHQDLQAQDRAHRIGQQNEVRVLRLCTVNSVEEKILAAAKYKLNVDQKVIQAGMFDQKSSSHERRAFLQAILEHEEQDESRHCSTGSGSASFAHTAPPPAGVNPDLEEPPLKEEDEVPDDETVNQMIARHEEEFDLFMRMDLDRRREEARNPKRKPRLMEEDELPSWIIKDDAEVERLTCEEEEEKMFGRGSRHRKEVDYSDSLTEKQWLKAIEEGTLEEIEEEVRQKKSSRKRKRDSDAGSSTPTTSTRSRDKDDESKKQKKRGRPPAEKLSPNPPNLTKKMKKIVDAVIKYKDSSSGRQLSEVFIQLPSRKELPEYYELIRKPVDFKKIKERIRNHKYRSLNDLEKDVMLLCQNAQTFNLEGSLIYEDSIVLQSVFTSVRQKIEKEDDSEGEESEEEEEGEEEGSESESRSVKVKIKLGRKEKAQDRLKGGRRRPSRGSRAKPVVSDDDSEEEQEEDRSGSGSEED

SMILES	BRM Max % Inhibition (BRM)	IC50 (BRM)	IC50 (BRG-1)	Emax (BRG-1)
Cc1cc(-c2cccc(-c3csc(NC(=O)CNC(=O)c4ccc(C)c(C(C)(C)CN)c4)n3)n2)ncn1 [Compound 201, 3-(2-amino-1,1-dimethyl-ethyl)-4-methyl-N-[2-[[4-[6-(6-methylpyrimidin-4-yl)-2-pyridyl]thiazol-2-yl]amino]-2-oxo-ethyl]benzamide]	>95%	< 0.1 µM	0.1 to 1 µM	> 90%
C[C@@H]1CN(c2cccc(-c3csc(NC(=O)CNC(=O)c4cc(C(C)(C)C)ccn4)n3)c2)C[C@H](C)O1 [Compound 202, 4-tert-butyl-N-[2-[[4-[3-[(cis)-2,6-dimethylmorpholin-4-yl]phenyl]thiazol-2-yl]amino]-2-oxo-ethyl]pyridine-2-carboxamide]	>90%	0.1 to 1 µM	1 to 5 µM	> 80%
Cc1cc(-c2cccc(-c3csc(NC(=O)CNC(=O)c4ccc5c(c4)[C@](C)(CO)CC5)n3)n2)ncn1 [Compound 203, (3R)-3-(hydroxymethyl)-3-methyl-N-[2-[[4-[6-(6-methylpyrimidin-4-yl)-2-pyridyl]thiazol-2-yl]amino]-2-oxo-ethyl]indane-5-carboxamide]	>95%	< 0.1 µM	0.1 to 1 µM	> 95%
Cc1cc(-c2cccc(-c3csc(NC(=O)CNC(=O)c4ccc5c(c4)[C@@](C)(CO)CC5)n3)n2)ncn1 [Compound 204, (3S)-3-(hydroxymethyl)-3-methyl-N-[2-[[4-[6-(6-methylpyrimidin-4-yl)-2-pyridyl]thiazol-2-yl]amino]-2-oxo-ethyl]indane-5-carboxamide]	>95%	< 0.1 µM	0.1 to 1 µM	> 90%
C[C@@H]1CN(c2cccc(-c3csc(NC(=O)CNC(=O)c4ccnc(C(C)(C)C)c4)n3)c2)C[C@H](C)O1 [Compound 205, 2-(tert-butyl)-N-(2-((4-(3-((cis)-2,6-dimethylmorpholino)phenyl)thiazol-2-yl)amino)-2-oxoethyl)isonicotinamide]	>95%	0.1 to 1 µM	1 to 5 µM	> 70%
Cc1nccc(-c2cccc(-c3csc(NC(=O)CNC(=O)c4ccc(C)c(C(C)(C)CN)c4)n3)n2)n1 [Compound 206, 3-(2-amino-1,1-dimethyl-ethyl)-4-methyl-N-[2-[[4-[6-(2-methylpyrimidin-4-yl)-2-pyridyl]thiazol-2-yl]amino]-2-oxo-ethyl]benzamide]	>95%	0.1 to 1 µM	1 to 5 µM	> 70%
Cc1cc(-c2cccc(-c3csc(NC(=O)CNC(=O)c4ccc5c(c4)[C@@](C)(CO)CCC5)n3)n2)ncn1 [Compound 207, (S)-8-(hydroxymethyl)-8-methyl-N-(2-((4-(6-(6-methylpyrimidin-4-yl)pyridin-2-yl)thiazol-2-yl)amino)-2-oxoethyl)-5,6,7,8-tetrahydronaphthalene-2-carboxamide]	>90%	0.1 to 1 µM	> 5 µM	> 50%
Cc1cc(-c2cccc(-c3csc(NC(=O)CNC(=O)c4ccc5c(c4)[C@](C)(CO)CCC5)n3)n2)ncn1 [Compound 208, (R)-8-(hydroxymethyl)-8-methyl-N-(2-((4-(6-(6-methylpyrimidin-4-yl)pyridin-2-yl)thiazol-2-yl)amino)-2-oxoethyl)-5,6,7,8-tetrahydronaphthalene-2-carboxamide]	>95%	0.1 to 1 µM	1 to 5 µM	> 60%
CC(C)(CN)c1cccc(C(=O)NCC(=O)Nc2nc(-c3cccc(-c4cccc(CN)c4)c3)cs2)c1 [Compound 209, 3-(2-amino-1,1-dimethyl-ethyl)-N-[2-[[4-[3-[3-(aminomethyl)phenyl]phenyl]thiazol-2-yl]amino]-2-oxo-ethyl]benzamide]	>90%	0.1 to 1 µM	1 to 5 µM	> 50%
CC1(C)c2cc(C(=O)NCC(=O)Nc3nc(-c4cccc(-c5ccncc5)c4)cs3)ccc2C[C@H]1N [Compound 210, (R)-2-amino-3,3-dimethyl-N-(2-oxo-2-((4-(3-(pyridin-4-yl)phenyl)thiazol-2-yl)amino)ethyl)-2,3-dihydro-1H-indene-5-carboxamide]	>95%	< 0.1 µM	0.1 to 1 µM	> 80%
Cc1nccc(-c2cccc(-c3csc(NC(=O)CNC(=O)c4ccc5c(c4)[C@@](C)(CO)CCC5)n3)n2)n1 [Compound 211, (4S)-4-(hydroxymethyl)-4-methyl-N-[2-[[4-[6-(2-methylpyrimidin-4-yl)-2-pyridyl]thiazol-2-yl]amino]-2-oxo-ethyl]tetralin-6-carboxamide]	>80%	0.1 to 1 µM	> 5 µM	> 40%
Cc1nccc(-c2cccc(-c3csc(NC(=O)CNC(=O)c4ccc5c(c4)[C@](C)(CO)CCC5)n3)n2)n1 [Compound 212, (4R)-4-(hydroxymethyl)-4-methyl-N-[2-[[4-[6-(2-methylpyrimidin-4-yl)-2-pyridyl]thiazol-2-yl]amino]-2-oxo-ethyl]tetralin-6-carboxamide]	>70%	0.1 to 1 µM	> 5 µM	< 30%
Cc1nccc(-c2cccc(-c3csc(NC(=O)CNC(=O)c4ccc5c(c4)[C@@](C)(CO)CC5)n3)n2)n1 [Compound 214]	>90%	0.1 to 1 µM	0.1 to 1 µM	> 80%
Cc1nccc(-c2cccc(-c3csc(NC(=O)CNC(=O)c4ccc5c(c4)[C@](C)(CO)CC5)n3)n2)n1 [Compound 215]	>95%	< 0.1 µM	0.1 to 1 µM	> 80%
Cc1cc(-c2cccc(-c3csc(NC(=O)CNC(=O)c4ccc(Cl)c(C(C)(C)CO)c4)n3)n2)ncn1 [Compound 216, 4-chloro-3-(2-hydroxy-1,1-dimethyl-ethyl)-N-[2-[[4-[6-(6-methylpyrimidin-4-yl)-2-pyridyl]thiazol-2-yl]amino]-2-oxo-ethyl]benzamide]	>95%	< 0.1 µM	0.1 to 1 µM	> 95%
C[C@@H]1CN(c2cccc(-c3csc(NC(=O)CNC(=O)c4cccc(C(C)(C)C)c4)n3)c2)C[C@H](C)O1 [Compound 217, 3-tert-butyl-N-[2-[[4-[3-[(cis)-2,6-dimethylmorpholin-4-yl]phenyl]thiazol-2-yl]amino]-2-oxo-ethyl]benzamide]	>95%	< 0.1 µM	0.1 to 1 µM	> 90%
C[C@@H]1CN(c2cccc(-c3csc(NC(=O)CNC(=O)c4ccc5c(c4)[C@](C)(CO)CC5)n3)c2)C[C@H](C)O1 [Compound 218, (R)-N-(2-((4-(3-((cis)-2,6-dimethylmorpholino)phenyl)thiazol-2-yl)amino)-2-oxoethyl)-3-(hydroxymethyl)-3-methyl-2,3-dihydro-1H-indene-5-carboxamide]	>90%	0.1 to 1 µM	1 to 5 µM	> 80%
C[C@@H]1CN(c2cccc(-c3csc(NC(=O)CNC(=O)c4ccc5c(c4)[C@@](C)(CO)CC5)n3)c2)C[C@H](C)O1 [Compound 219, (S)-N-(2-((4-(3-((cis)-2,6-dimethylmorpholino)phenyl)thiazol-2-yl)amino)-2-oxoethyl)-3-(hydroxymethyl)-3-methyl-2,3-dihydro-1H-indene-5-carboxamide]	>95%	< 0.1 µM	0.1 to 1 µM	> 90%
Cc1nccc(-c2cccc(-c3csc(NC(=O)CNC(=O)c4cccc(C(C)(C)CO)c4)n3)n2)n1 [Compound 222, 3-(2-hydroxy-1,1-dimethyl-ethyl)-N-[2-[[4-[6-(2-methylpyrimidin-4-yl)-2-pyridyl]thiazol-2-yl]amino]-2-oxo-ethyl]benzamide]	>95%	< 0.1 µM	0.1 to 1 µM	> 80%
C[C@@H]1CN(c2cccc(-c3csc(NC(=O)CNC(=O)c4ccc5c(c4)[C@](C)(CO)CC5)n3)n2)C[C@H](C)O1 [Compound 223, (R)-N-(2-((4-(6-((cis)-2,6-dimethylmorpholino)pyridin-2-yl)thiazol-2-yl)amino)-2-oxoethyl)-3-(hydroxymethyl)-3-methyl-2,3-dihydro-1H-indene-5-carboxamide]	>95%	< 0.1 µM	1 to 5 µM	> 80%
C[C@@H]1CN(c2cccc(-c3csc(NC(=O)CNC(=O)c4ccc5c(c4)[C@@](C)(CO)CC5)n3)n2)C[C@H](C)O1 [Compound 224, (3S)-N-[2-[[4-[6-[(cis)-2,6-dimethylmorpholin-4-yl]-2-pyridyl]thiazol-2-yl]amino]-2-oxo-ethyl]-3-(hydroxymethyl)-3-methyl-indane-5-carboxamide]	>95%	< 0.1 µM	0.1 to 1 µM	> 95%
Cc1cc(-c2cccc(-c3csc(NC(=O)CNC(=O)c4ccc5c(c4)[C@](C)(CN)CCC5)n3)c2)cc(C)n1 [Compound 225, (4R)-4-(aminomethyl)-N-[2-[[4-[3-(2,6-dimethyl-4-pyridyl)phenyl]thiazol-2-yl]amino]-2-oxo-ethyl]-4-methyl-tetralin-6-carboxamide]	>80%	0.1 to 1 µM	> 5 µM	> 40%
C[C@]1(CO)CCc2c(C(=O)NCC(=O)Nc3nc(-c4cccc(-c5ccncc5)c4)cs3)cccc21 [Compound 226, (S)-1-(hydroxymethyl)-1-methyl-N-(2-oxo-2-((4-(3-(pyridin-4-yl)phenyl)thiazol-2-yl)amino)ethyl)-2,3-dihydro-1H-indene-4-carboxamide]	>95%	0.1 to 1 µM	1 to 5 µM	> 70%
